In patent USRE30241E, “Esters of 3-(hydroxy or hydroxymethyl)-4-hydroxyphenyl aminomethyl ketones” (Sterling Drug Inc., priority 1970, dated 1980):
Like-named read-outs stand apart in the source and are kept apart here.

Key:
[1] = system: carbachol- or histamine-induced bronchoconstriction; test: Bronchodilator Test Method I, anesthetized dog, intravenous activity; type: in vivo; details: Canis lupus familiaris, read-out: Bronchodilatation; for inhibition in vivo at 0.005 mg/kg: 5 mcg/kg i.v.; for inhibition in vivo at 0.02 mg/kg: 20 mcg/kg i.v.; for inhibition in vivo at 0.08 mg/kg: 80 mcg/kg i.v.; for inhibition in vivo at 0.025 mg/kg: 25 mcg/kg i.v.; for inhibition in vivo at 0.1 mg/kg: 100 mcg/kg i.v.; for inhibition in vivo at 0.0013 mg/kg: 1.3 mcg/kg i.v.; for inhibition in vivo at 0.0065 mg/kg: 6.5 mcg/kg i.v.; for inhibition in vivo at 0.0325 mg/kg: 32.5 mcg/kg i.v.; for inhibition in vivo at 0.00025 mg/kg: 0.25 mcg/kg i.v.; for inhibition in vivo at 0.001 mg/kg: 1 mcg/kg i.v.; for inhibition in vivo at 0.004 mg/kg: 4 mcg/kg i.v.
Summary of the method: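 Pentobarbital-anesthetized (30 mg/kg i.v.), open-chest, artificially ventilated dogs were given i.v. carbachol (4-6 µg/kg) or histamine diphosphate (35-45 µg/kg). Test compound was given i.v. mixed with, after, or 1-10 min before the constrictor.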

[2] = system: carbachol- or histamine-induced bronchoconstriction; test: Bronchodilator Test Method I, anesthetized dog, intraduodenal activity; type: in vivo; details: Canis lupus familiaris, read-out: Bronchodilation; for inhibition in vivo at 0.025 mg/kg: 25 mcg/kg (salt) intraduodenal; for inhibition in vivo at 0.05 mg/kg: 50 mcg/kg (salt) intraduodenal
Summary of the method: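 Pentobarbital-anesthetized (30 mg/kg i.v.) open-chest dogs of 9-18 kg, artificially ventilated; airway pressure recorded via tracheal cannula transducer. Test solution injected intraduodenally; from 5 min, i.v. carbachol (4-6 μg/kg) or histamine diphosphate (35-45 μg/kg) challenges every 30-60 min gauged degree and duration of bronchodilation.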

heart rate = test: Cardiovascular studies: effect on the heart rate in the anesthetized dog; type: in vivo
Protocol: The effect of a rapid intravenous injection on the heart rate the heart rate was conducted in anesthetized dogs under normal respiration. A few open-chest dogs were also tested. Increase in heart rate was measured by using an electrocardiograph attached to the dog. Readings were taken every 0.5-1 minute for the first 10 minutes and every 2-5 minutes thereafter until recovery. In some cases, several doses and more than one compound were tested alternately in the same dog. The blood pressure effect was simultaneously recorded.

[3] = system: guinea pig bronchioles constricted by carbachol; test: Bronchodilator Test Method II, in vitro perfused guinea pig lung
Protocol: In this method bronchodilator activity in vitro was determined by testing the effect of graded doses of the test compounds on guinea pig bronchioles constricted by carbachol, using the technique reported by Sollman and von Oettingen, Proc. Soc, Exp. Biol. Med., 25,692 (1928) as modified by Tainter, Pedden, and James, J. Pharm. Exp. Ther., 51, 371 (1934) and by Luduena, von Euler, Tullar, and Lands, Arch. intern. Pharmacol., III, 392 (1957).

CC(C)(C)NCC(O)c1ccc(OC(=O)C(C)(C)C)c(COC(=O)C(C)(C)C)c1 (stereo not drawn) [Example 135, 3-(pivalyloxymethyl)-4-(pivaloxy)-alpha-(tert-butylaminomethyl)benzyl alcohol methanesulfonate]
inhibition in vivo at 0.005 mg/kg ([1]; 5 min, 5 min): 18%
inhibition in vivo at 0.02 mg/kg ([1]; 5 min, 5 min): 30%
inhibition in vivo at 0.08 mg/kg ([1]; 5 min, 5 min): 38%
inhibition in vivo at 0.005 mg/kg ([1]; 0.5 h, 30 min): 32%
inhibition in vivo at 0.02 mg/kg ([1]; 0.5 h, 30 min): 49%
inhibition in vivo at 0.08 mg/kg ([1]; 0.5 h, 30 min): 64%
inhibition in vivo at 0.005 mg/kg ([1]; 1 h, 60 min): 36%
inhibition in vivo at 0.02 mg/kg ([1]; 1 h, 60 min): 50%
inhibition in vivo at 0.08 mg/kg ([1]; 1 h, 60 min): 62%
inhibition in vivo at 0.005 mg/kg ([1]; 2 h, 120 min): 26%
inhibition in vivo at 0.02 mg/kg ([1]; 2 h, 120 min): 56%
inhibition in vivo at 0.08 mg/kg ([1]; 2 h, 120 min): 66%
inhibition in vivo at 0.02 mg/kg ([1]; 3 h, 180 min): 50%
inhibition in vivo at 0.08 mg/kg ([1]; 3 h, 180 min): 62%
inhibition in vivo at 0.02 mg/kg ([1]; 4 h, 240 min): 45%
inhibition in vivo at 0.08 mg/kg ([1]; 4 h, 240 min): 56%
inhibition in vivo at 0.02 mg/kg ([1]; 5 h, 300 min): 36%
inhibition in vivo at 0.08 mg/kg ([1]; 5 h, 300 min): 49%
inhibition in vivo at 0.025 mg/kg ([2]; 5 min, 5 min): 18%
inhibition in vivo at 0.05 mg/kg ([2]; 5 min, 5 min): 31%
inhibition in vivo at 0.05 mg/kg ([2]; 0.5 h, 30 min): 56%
inhibition in vivo at 0.025 mg/kg ([2]; 1 h, 60 min): 56%
inhibition in vivo at 0.05 mg/kg ([2]; 1 h, 60 min): 74%
inhibition in vivo at 0.025 mg/kg ([2]; 2 h, 120 min): 55%
inhibition in vivo at 0.05 mg/kg ([2]; 2 h, 120 min): 73%
inhibition in vivo at 0.025 mg/kg ([2]; 3 h, 180 min): 45%
inhibition in vivo at 0.05 mg/kg ([2]; 3 h, 180 min): 64%
inhibition in vivo at 0.025 mg/kg ([2]; 4 h, 240 min): 34%
inhibition in vivo at 0.05 mg/kg ([2]; 4 h, 240 min): 51%
inhibition in vivo at 0.025 mg/kg ([2]; 5 h, 300 min): 27%
inhibition in vivo at 0.05 mg/kg ([2]; 5 h, 300 min): 37%
inhibition in vivo at 0.05 mg/kg ([2]; 6 h, after 6 hrs.): 36%
Mean Maximal Increase in the Heart Rate (heart rate; 0.25 mcg/kg (salt) i.v.): 5 Beats/Minute
Mean Maximal Increase in the Heart Rate (heart rate; 1 mcg/kg (salt) i.v.): 10 Beats/Minute
Mean Maximal Increase in the Heart Rate (heart rate; 8 mcg/kg (salt) i.v.): 17 Beats/Minute

Cc1cccc(C(=O)Oc2ccc(C(O)CNC(C)(C)C)cc2O)c1 (stereo not drawn) [Example 139, 3-hydroxy-4-(m-toluyloxy)-alpha-(tert-butylaminomethyl)benzyl alcohol methanesulfonate]
inhibition in vivo at 0.025 mg/kg ([1]; 5 min, 5 min): 81%
inhibition in vivo at 0.1 mg/kg ([1]; 5 min, 5 min): 74%
inhibition in vivo at 0.025 mg/kg ([1]; 0.5 h, 30 min): 22%
inhibition in vivo at 0.1 mg/kg ([1]; 0.5 h, 30 min): 63%
inhibition in vivo at 0.025 mg/kg ([1]; 1 h, 60 min): 24%
inhibition in vivo at 0.1 mg/kg ([1]; 1 h, 60 min): 22%
inhibition in vivo at 0.025 mg/kg ([1]; 2 h, 120 min): 0%
inhibition in vivo at 0.1 mg/kg ([1]; 2 h, 120 min): 25%
inhibition in vivo at 0.1 mg/kg ([1]; 3 h, 180 min): 9%
inhibition in vivo at 0.1 mg/kg ([1]; 5 h, 300 min): 10%
ED50 ([3]; carbachol (Doryl) 1:5 million): 2.64 µg (base)
Duration, Mean ([3]; dose 6 mcg (base)): 29.8 ± 4.4 min
Mean Maximal Increase in the Heart Rate (heart rate; 5 mcg/kg (salt) i.v.): 6 Beats/Minute
Mean Maximal Increase in the Heart Rate (heart rate; 25 mcg/kg (salt) i.v.): 28 Beats/Minute
Mean Maximal Increase in the Heart Rate (heart rate; 50 mcg/kg (salt) i.v.): 35 Beats/Minute

CC(=O)Oc1ccc(C(O)CNC(C)(C)C)cc1OC(=O)C12CC3CC(CC(C3)C1)C2 (stereo not drawn) [Example 148, 3-(1-adamantanecarbonyloxy)-4-acetoxy-alpha-(tert-butylaminomethyl)benzyl alcohol methanesulfonate]
inhibition in vivo at 0.0013 mg/kg ([1]; 5 min, 5 min): 21%
inhibition in vivo at 0.0065 mg/kg ([1]; 5 min, 5 min): 47%
inhibition in vivo at 0.0325 mg/kg ([1]; 5 min, 5 min): 95%
inhibition in vivo at 0.0013 mg/kg ([1]; 0.5 h, 30 min): 1%
inhibition in vivo at 0.0065 mg/kg ([1]; 0.5 h, 30 min): 30%
inhibition in vivo at 0.0325 mg/kg ([1]; 0.5 h, 30 min): 66%
inhibition in vivo at 0.0013 mg/kg ([1]; 1 h, 60 min): 10%
inhibition in vivo at 0.0065 mg/kg ([1]; 1 h, 60 min): 23%
inhibition in vivo at 0.0325 mg/kg ([1]; 1 h, 60 min): 54%
inhibition in vivo at 0.0013 mg/kg ([1]; 2 h, 120 min): 16%
inhibition in vivo at 0.0065 mg/kg ([1]; 2 h, 120 min): 15%
inhibition in vivo at 0.0325 mg/kg ([1]; 2 h, 120 min): 39%
inhibition in vivo at 0.0065 mg/kg ([1]; 3 h, 180 min): 13%
inhibition in vivo at 0.0325 mg/kg ([1]; 3 h, 180 min): 28%
inhibition in vivo at 0.0325 mg/kg ([1]; 4 h, 240 min): 14%
Mean Maximal Increase in the Heart Rate (heart rate; 6.5 mcg/kg (salt) i.v.): 32 Beats/Minute
Mean Maximal Increase in the Heart Rate (heart rate; 32.5 mcg/kg (salt) i.v.): 58 Beats/Minute

CC(C)(C)NCC(O)c1ccc(O)c(CO)c1 (stereo not drawn) [Ref. Cpd. III, 3-Hydroxymethyl-4-hydroxy-alpha-(tert-butylaminomethyl)benzyl alcohol, reference compound]
inhibition in vivo at 0.00025 mg/kg ([1]; 5 min, 5 min): 18%
inhibition in vivo at 0.001 mg/kg ([1]; 5 min, 5 min): 31%
inhibition in vivo at 0.004 mg/kg ([1]; 5 min, 5 min): 65%
inhibition in vivo at 0.00025 mg/kg ([1]; 0.5 h, 30 min): 0%
inhibition in vivo at 0.001 mg/kg ([1]; 0.5 h, 30 min): 14%
inhibition in vivo at 0.004 mg/kg ([1]; 0.5 h, 30 min): 24%
inhibition in vivo at 0.001 mg/kg ([1]; 1 h, 60 min): 3%
inhibition in vivo at 0.004 mg/kg ([1]; 1 h, 60 min): 18%
inhibition in vivo at 0.004 mg/kg ([1]; 2 h, 120 min): 0%
inhibition in vivo at 0.025 mg/kg ([2]; 10 min, 10 min): 45%
inhibition in vivo at 0.05 mg/kg ([2]; 10 min, 10 min): 13%
inhibition in vivo at 0.05 mg/kg ([2]; 0.5 h, 30 min): 42%
inhibition in vivo at 0.025 mg/kg ([2]; 1 h, 60 min): 51%
inhibition in vivo at 0.05 mg/kg ([2]; 1 h, 60 min): 56%
inhibition in vivo at 0.025 mg/kg ([2]; 2 h, 120 min): 43%
inhibition in vivo at 0.05 mg/kg ([2]; 2 h, 120 min): 71%
inhibition in vivo at 0.025 mg/kg ([2]; 3 h, 180 min): 0%
inhibition in vivo at 0.05 mg/kg ([2]; 3 h, 180 min): 53%
inhibition in vivo at 0.05 mg/kg ([2]; 4 h, 240 min): 34%
inhibition in vivo at 0.05 mg/kg ([2]; 5 h, 300 min): 6%
Mean Maximal Increase in the Heart Rate (heart rate; 0.25 mcg/kg (salt) i.v.): 9 Beats/Minute
Mean Maximal Increase in the Heart Rate (heart rate; 1 mcg/kg (salt) i.v.): 15 Beats/Minute
Mean Maximal Increase in the Heart Rate (heart rate; 4 mcg/kg (salt) i.v.): 34 Beats/Minute
